# From ChEMBL document CHEMBL5143620, “Discovery of tricyclic HIV-1 integrase-LEDGF/p75 allosteric inhibitors by intramolecular direct arylation reaction” (Bioorg Med Chem Lett, 2022)
# Values joined by “and” are separate entries in the source; they are usually repeats but may differ in a detail not shown here. Equal entries are not always repeated.
# Legend:
# [1] = test system: Human immunodeficiency virus 1; assay: Antiviral activity against wild type HIV-1 infected in human MT4 cells assessed as inhibition of viral infection by MTT assay; type: functional, organism-based
# MT4 = assay: Cytotoxicity against human MT4 cells assessed as reduction in cell viability by MTT assay; type: functional
# [2] = test system: Human immunodeficiency virus 1; assay: Antiviral activity against […] HIV-1 harboring T174I mutant infected in human MT4 cells assessed as inhibition of viral infection by MTT assay; type: functional, organism-based
# [3] = Metabolic stability in human liver microsomes; type: ADME, Microsome
# [4] = Metabolic stability in rat liver microsomes; type: ADME, Microsome
# [5] = AUC in rat at 0.5 mg/kg, iv; type: ADME, organism-based; parameters: dose 0.5 mg/kg, route iv; settings: in vivo
# [6] = Elimination half life in rat at 0.5 mg/kg, iv; type: ADME, organism-based; settings: in vivo, read-out: beta t1/2 (converted)
# [7] = Oral bioavailability in rat at 1 mg/kg; type: ADME, organism-based; settings: in vivo
# [8] = Human immunodeficiency virus 1, MT4
Compound,"EC50 [1, 8]","CC50 (MT4; Homo sapiens, MT4)","EC50 [2, 8]",also measured
Cc1ccc(-c2c(C)c3c(c(C)c2[C@H](OC(C)(C)C)C(=O)O)N(C)S(=O)(=O)c2ccccc2-3)cc1,0.076 µM,19 µM,–,–
Cc1ccc(-c2c(C)c3c(c(C)c2[C@H](OC(C)(C)C)C(=O)O)N(S(C)(=O)=O)Cc2ccc(C)cc2-3)cc1,0.012 µM,13 µM,0.93 µM,–
Cc1c(-c2ccc3c(c2)CCCO3)c([C@H](OC(C)(C)C)C(=O)O)c(C)c2c1-c1c(F)cccc1CN2S(C)(=O)=O,0.0062 µM,29 µM,0.17 µM,–
Cc1ccc(-c2c(C)c3c(c(C)c2[C@H](OC(C)(C)C)C(=O)O)N(S(C)(=O)=O)Cc2cccnc2-3)cc1,0.023 µM,70 µM,3.2 µM,–
Cc1ccc(-c2c(C)c3c(c(C)c2[C@H](OC(C)(C)C)C(=O)O)N(S(C)(=O)=O)Cc2ccc(F)cc2-3)cc1,0.011 µM,15 µM,1.2 µM,–
Cc1ccc(-c2c(C)c3c(c(C)c2[C@H](OC(C)(C)C)C(=O)O)N(S(C)(=O)=O)Cc2cccc(Cl)c2-3)cc1,0.015 µM,16 µM,0.54 µM,–
Cc1ccc(-c2c(C)c3c(c(C)c2[C@H](OC(C)(C)C)C(=O)O)N(S(C)(=O)=O)Cc2ncccc2-3)cc1,0.058 µM,61 µM,> 5 µM,–
Cc1ccc(-c2c([C@H](OC(C)(C)C)C(=O)O)c(C)c3[nH]c4ccccc4c3c2C)cc1,0.31 µM,13 µM,–,–
Cc1ccc(-c2c(C)c3c(c(C)c2[C@H](OC(C)(C)C)C(=O)O)N(S(C)(=O)=O)Cc2c(F)cccc2-3)cc1,0.01 µM,24 µM,0.51 µM,–
Cc1ccc(-c2c(C)c3c(c(C)c2[C@H](OC(C)(C)C)C(=O)O)N(S(C)(=O)=O)Cc2cnccc2-3)cc1,0.065 µM,65 µM,> 5 µM,–
Cc1ccc(-c2c(C)c3c(c(C)c2[C@H](OC(C)(C)C)C(=O)O)N(S(C)(=O)=O)Cc2cc(C#N)ccc2-3)cc1,0.0073 µM,35 µM,0.72 µM,–
Cc1ccc(-c2c([C@H](OC(C)(C)C)C(=O)O)c(C)c3c(c2C)c2ccccc2c(=O)n3C)cc1,0.73 µM,25 µM,–,–
Cc1ccc(-c2c(C)cc(N(Cc3ccccc3)S(C)(=O)=O)c(C)c2[C@H](OC(C)(C)C)C(=O)O)cc1,0.056 µM,14 µM,–,–
Cc1ccc(-c2c(C)c3c(c(C)c2[C@H](OC(C)(C)C)C(=O)O)N(S(C)(=O)=O)Cc2cccc(F)c2-3)c(C)c1,–,18 µM,1.1 µM,EC50 ([1]; mt4): 0.0037 µM and 0.0095 µM; CC50 (MT4): 11 µM; EC50 ([2]; mt4): 1.5 µM
Cc1ccc(-c2c(C)c3c(c(C)c2[C@H](OC(C)(C)C)C(=O)O)N(S(C)(=O)=O)Cc2ccccc2-3)cc1,0.011 µM,21 µM,0.81 µM,–
COc1ccc(-c2c(C)c3c(c(C)c2[C@H](OC(C)(C)C)C(=O)O)N(S(C)(=O)=O)Cc2cccc(F)c2-3)cc1,0.0064 µM,31 µM,0.32 µM,–
Cc1c(-c2ccc(Cl)cc2)c([C@H](OC(C)(C)C)C(=O)O)c(C)c2c1-c1c(F)cccc1CN2S(C)(=O)=O,0.0086 µM,16 µM,0.34 µM,–

Compound,"EC50 [1, 8]","CC50 (MT4; Homo sapiens, MT4)","EC50 [2, 8]",also measured
Cc1c(-c2c(C)c3c(c(C)c2[C@H](OC(C)(C)C)C(=O)O)N(S(C)(=O)=O)Cc2cccc(F)c2-3)ccc2c1CCCO2,–,17 µM,–,EC50 ([1]; mt4): 0.0019 µM and 0.0067 µM; CC50 (MT4): 22 µM; EC50 ([2]; mt4): 0.048 µM and 0.42 µM
Cc1ccc(-c2c(C)c3c(c(C)c2[C@H](OC(C)(C)C)C(=O)O)N(S(C)(=O)=O)Cc2cccc(F)c2-3)cc1,0.0055 µM,17 µM,0.29 µM,–
Cc1ccc(-c2c(C)c3c(c(C)c2[C@H](OC(C)(C)C)C(=O)O)N(S(C)(=O)=O)Cc2ccncc2-3)cc1,0.02 µM,25 µM,> 5 µM,–
Cc1ccc(-c2c(C)c3c(c(C)c2[C@H](OC(C)(C)C)C(=O)O)N(S(C)(=O)=O)Cc2cccc(F)c2-3)c(O)c1,–,–,–,EC50 ([1]; mt4): 0.0046 µM and 0.021 µM; CC50 (MT4): 59 µM and 14 µM; Stability [3]: 76.3%; Stability [4]: 60.7%; AUC [5]: 21.2 ng·h/mL; half-life [6]: 3.5 h; bioavailability [7]: 17.8%
Cc1ccc(-c2c(C)c3c(c(C)c2[C@H](OC(C)(C)C)C(=O)O)N(C)Cc2ccccc2-3)cc1,0.12 µM,8.4 µM,–,–
Cc1ccc(-c2c(C)c3c(c(C)c2[C@H](OC(C)(C)C)C(=O)O)N(S(C)(=O)=O)Cc2cc(C)ccc2-3)cc1,0.0049 µM,14 µM,0.44 µM,–
CC(=O)N1Cc2ccccc2-c2c(C)c(-c3ccc(C)cc3)c([C@H](OC(C)(C)C)C(=O)O)c(C)c21,0.03 µM,27 µM,–,–
Cc1ccc(-c2c(C)c3c(c(C)c2[C@H](OC(C)(C)C)C(=O)O)N(S(C)(=O)=O)Cc2cc(Cl)ccc2-3)cc1,0.0039 µM,13 µM,0.33 µM,–
COc1ccc2c(c1)CN(S(C)(=O)=O)c1c(C)c([C@H](OC(C)(C)C)C(=O)O)c(-c3ccc(C)cc3)c(C)c1-2,0.0029 µM,17 µM,0.27 µM,–
Cc1ccc(-c2c(C)c3c(c(C)c2[C@H](OC(C)(C)C)C(=O)O)N(S(C)(=O)=O)Cc2c(C)cccc2-3)cc1,0.008 µM,17 µM,0.67 µM,–
Cc1c(-c2ccc(F)cc2)c([C@H](OC(C)(C)C)C(=O)O)c(C)c2c1-c1c(F)cccc1CN2S(C)(=O)=O,0.012 µM,32 µM,0.86 µM,–
Cc1c(-c2ccc3c(c2)NCCO3)c([C@H](OC(C)(C)C)C(=O)O)c(C)c2c1-c1c(F)cccc1CN2S(C)(=O)=O,0.01 µM,55 µM,0.15 µM,–
Cc1ccc(-c2c(C)c3c(c(C)c2[C@H](OC(C)(C)C)C(=O)O)N(S(C)(=O)=O)Cc2cc(C(F)(F)F)ccc2-3)cc1,0.003 µM,10 µM,0.46 µM,–
Cc1ccc(-c2c(C)c3c(c(C)c2[C@H](OC(C)(C)C)C(=O)O)N(S(C)(=O)=O)Cc2cccc(C)c2-3)cc1,0.02 µM,17 µM,0.6 µM,–
Cc1c(-c2ccc3c(c2)NCCC3)c([C@H](OC(C)(C)C)C(=O)O)c(C)c2c1-c1c(F)cccc1CN2S(C)(=O)=O,0.0043 µM,30 µM,0.099 µM,–
Cc1ccc(-c2c(C)c3c(c(C)c2[C@H](OC(C)(C)C)C(=O)O)N(S(C)(=O)=O)Cc2cc(F)ccc2-3)cc1,0.0057 µM,19 µM,0.36 µM,–
Cc1nc2ccccc2c(-c2ccc3c4c(ccnc24)CCO3)c1[C@H](OC(C)(C)C)C(=O)O [BI-224436],0.02 µM,> 50 µM,> 5 µM,–
